Measurements published in US9125913B2, “Bcl-2-selective apoptosis-inducing agents for the treatment of cancer and immune diseases” (AbbVie Inc., priority 2008, dated 2015).

test system: GST-Bcl-2; assay: TR-FRET binding assay, Bcl-2; conditions: TR-FRET Ki values
Protocol: Tb-anti-GST antibody was purchased from Invitrogen (Catalog No. PV4216).
Representative compounds were serially diluted in dimethyl sulfoxide (DMSO) starting at 50 μM (2× starting concentration; 10% DMSO) and 10 μL were transferred into a 384-well plate.
The samples were then mixed on a shaker for 1 minute and incubated for an additional 3 hours at room temperature. For each assay, the probe/antibody and protein/probe/antibody were included on each assay plate as negative and positive controls, respectively. Fluorescence was measured on the Envision (Perkin Elmer) using a 340/35 nm excitation filter and 520/525 (F-Bak peptide) and 495/510 nm (Tb-labeled anti-Histidine antibody) emission filters.
The inhibition constant (Ki) is the dissociation constant of an enzyme-inhibitor complex or a protein/small molecule complex, wherein the small molecule is inhibiting binding of one protein to another protein or peptide. […] Inhibition constants were determined using Wang's equation (Wang Z-X., An Exact Mathematical Expression For Describing Competitive Binding Of Two Different Ligands To A Protein Molecule. FEBS Lett. 1995, 360:111-4).

Row | Structure (SMILES) | Binding selectivity ratio (Bcl-XL Ki/Bcl-2 Ki)
1 | CN1CCN(Nc2ccc(S(=O)(=O)NC(=O)c3ccc(N4CCN(CC5=C(c6ccc(Cl)cc6)CC(C)(C)CC5)CC4)cc3Oc3ccc4[nH]ccc4c3)cc2S(=O)(=O)C(F)(F)F)CC1 [EXAMPLE 220, 4-(4-{[2-(4-chlorophenyl)-4,4-dimethylcyclohex-1-en-1-yl]methyl}piperazin-1-yl)-2-(1H-indol-5-yloxy)-N-({4-[(4-methylpiperazin-1-yl)amino]-3-[(trifluoromethyl)sulfonyl]phenyl}sulfonyl)benzamide] | 163.7
2 | CN1CCC(Nc2ccc(S(=O)(=O)NC(=O)c3ccc(N4CCN(Cc5cc(OCCO)ccc5-c5ccc(Cl)cc5)CC4)cc3Oc3cccc4[nH]ccc34)cc2[N+](=O)[O-])CC1 [EXAMPLE 221, 4-(4-{[4′-chloro-4-(2-hydroxyethoxy)-1,1′-biphenyl-2-yl]methyl}piperazin-1-yl)-2-(1H-indol-4-yloxy)-N-({4-[(1-methylpiperidin-4-yl)amino]-3-nitrophenyl}sulfonyl)benzamide] | 3005.2
3 | CC1(C)CCC(CN2CCN(c3ccc(C(=O)NS(=O)(=O)c4ccc(NCCCN5CCNC(=O)C5)c([N+](=O)[O-])c4)c(Oc4ccc5[nH]ccc5c4)c3)CC2)=C(c2ccc(Cl)cc2)C1 [EXAMPLE 222, 4-(4-{[2-(4-chlorophenyl)-4,4-dimethylcyclohex-1-en-1-yl]methyl}piperazin-1-yl)-2-(1H-indol-5-yloxy)-N-[(3-nitro-4-{[3-(3-oxopiperazin-1-yl)propyl]amino}phenyl)sulfonyl]benzamide] | 1275.3
4 | CC1(C)CCC(CN2CCN(c3ccc(C(=O)NS(=O)(=O)c4ccc(NCCCN5CCNC(=O)C5)c([N+](=O)[O-])c4)c(Oc4cccc5[nH]ccc45)c3)CC2)=C(c2ccc(Cl)cc2)C1 [EXAMPLE 223, 4-(4-{[2-(4-chlorophenyl)-4,4-dimethylcyclohex-1-en-1-yl]methyl}piperazin-1-yl)-2-(1H-indol-4-yloxy)-N-[(3-nitro-4-{[3-(3-oxopiperazin-1-yl)propyl]amino}phenyl)sulfonyl]benzamide] | 574.1
5 | CN1CCC(Nc2ccc(S(=O)(=O)NC(=O)c3ccc(N4CCN(CC5=C(c6ccc(Cl)cc6)CCC(O)C5)CC4)cc3Oc3ccc4[nH]ccc4c3)cc2[N+](=O)[O-])CC1 (stereo not shown) [EXAMPLE 224, 4-(4-{[2-(4-chlorophenyl)-5-hydroxycyclohex-1-en-1-yl]methyl}piperazin-1-yl)-2-(1H-indol-5-yloxy)-N-({4-[(1-methylpiperidin-4-yl)amino]-3-nitrophenyl}sulfonyl)benzamide] | >99.9
6 | O=C(NS(=O)(=O)c1ccc(NC2CCN(C3CCOCC3)CC2)c([N+](=O)[O-])c1)c1ccc(N2CCN(CC3=C(c4ccc(Cl)cc4)CCC(O)C3)CC2)cc1Oc1ccc2[nH]ccc2c1 (stereo not shown) [EXAMPLE 225, 4-(4-{[2-(4-chlorophenyl)-5-hydroxycyclohex-1-en-1-yl]methyl}piperazin-1-yl)-2-(1H-indol-5-yloxy)-N-({3-nitro-4-[(1-tetrahydro-2H-pyran-4-ylpiperidin-4-yl)amino]phenyl}sulfonyl)benzamide] | >348.2
7 | CN1CCN(Nc2ccc(S(=O)(=O)NC(=O)c3ccc(N4CCN(CC5=C(c6ccc(Cl)cc6)CCC(O)C5)CC4)cc3Oc3ccc4[nH]ccc4c3)cc2[N+](=O)[O-])CC1 (stereo not shown) [EXAMPLE 226, 4-(4-{[2-(4-chlorophenyl)-5-hydroxycyclohex-1-en-1-yl]methyl}piperazin-1-yl)-2-(1H-indol-5-yloxy)-N-({4-[(4-methylpiperazin-1-yl)amino]-3-nitrophenyl}sulfonyl)benzamide] | 577.7
